In patent US10588889B2 (priority 2015, dated 2020):

Tests used:
[1] = tested on: nociceptive sensitization; assay: Subject with opioid-induced increased nociceptive sensitization switched to compound (Example 4); assay type: in vivo; conditions: subject switched from opioid to pharmaceutical composition of compound
From the text: A subject is identified as having increased nociceptive sensitization due to being administered an opioid for pain relief. The subject is switched from the opioid to a pharmaceutical composition comprising Compound 140 or Compound 265. The subject's nociceptive sensitization is decreased while maintaining the pain relief.

[2] = tested on: opioid induced hyperalgesia; assay: Human subject with morphine-induced hyperalgesia switched to compound (Example 3); assay type: in vivo; conditions: morphine stopped, compound administered
[3] = tested on: mouse model of opioid induced hyperalgesia; conditions: in vivo, sc

Row | Compound | nociceptive sensitization after switch from opioid [1] | opioid induced hyperalgesia in human subject after stopping morphine [2] | % non-responses to 10 applications of a 0.4 g von Frey filament (hyperalgesia induction) [3]
1 | COc1ccsc1CNCC[C@@]1(c2ccccn2)CCOC2(CCCC2)C1 [Compound 140] | decreased | treated and reduced | –
2 | COc1ccc2c3c1O[C@H]1C(=O)CC[C@@]4(O)[C@@H](C2)N(C)CC[C@]314 [Oxycodone] | – | – | decreased the % non-responses
